Assay results published in US20110028566A1, “COMPOSITIONS AND PRODUCTS CONTAINING CYCLOALIPHATIC DIOL ANTIMICROBIAL AGENTS AND METHODS OF USING THE COMPOSITIONS AND PRODUCTS” (EASTMAN CHEMICAL COMPANY, priority 2009, published 2011).

How the values were obtained:
Type in all cases: cell-based
A. niger = assay: MIC comparison of 1,1- and 1,4-CHDM, 96-well plates
Experimental: (§1) The antimicrobial activities of 1,4-cyclohexanedimethanol (1,4-CHDM) and 1,1-cyclohexanedimethanol (1,1-CHDM) have been determined. […] MICs were individually calculated for three consecutive days with both 1,1-cyclohexanedimethanol and the 31% cis:69% trans mixture of 1,4-cyclohexanedimethanol. Both compounds were evaluated against a panel of five strains of microorganisms.
(§2) Strains P. aeruginosa, C. albicans, E. coli, A. niger and S. aureus were purchased from the American Type Culture Collection (Manassas, Va.). NUNC flat bottom polystyrene 96 well microtiter plates (NUNC Cat# 269787), and 17×100 mm culture tubes (VWR Cat# 60818-703) were purchased from VWR International, LLC (West Chester, Pa.). Eastman CHDM-D90 and 1,1-CHDM (>99.7% by GC and verified by NMR) were provided by Eastman Chemical Company (Kingsport, Tenn.). All bacterial cultures were grown in BD BBL trypticase soy broth, and all fungal cultures were grown in sabourand dextrose broth purchased from VWR International, LLC (West Chester, Pa.). Absorbance measurements were taken with a TECAN GENios Pro microplate reader.
A. niger was cultured on sabourand dextrose agar plates until a heavy concentration of black spores were visibly apparent. Spores were harvested from the plate by suspension in 3 ml of sabourand dextrose broth utilizing a sterile plastic spreader and sterile transfer pipette.
(§3) Stock solutions were prepared for each isomer in the corresponding growth media at a concentration of 5% w/v (1,4-CHDM) or 2.25% w/v (1,1-CHDM). Serial dilutions were prepared with a dilution ratio of 1:1.3333 such that one log range was covered with nine dilutions.
(§4) Two-hundred microliters of each CHDM concentration was transferred into 4 wells of a sterile 96-well plate. Four extra wells of the highest concentration were filled for the uninoculated high-level controls. Eight additional wells were filled with only sterile broth to serve as negative and positive controls. The last well of each CHDM isomer dilution was left uninoculated to serve as controls for background turbidity associated with test compounds. Plates with bacteria or C. albicans were inoculated with 2 μl of seed culture for final concentration of roughly 10^6 CFU/ml for the bacteria and 10^5 CFU/ml for the C. albicans. Plates with A. niger were inoculated with 2 μl of spore suspension prepared above.
(§5) Each plate was covered and incubated at the appropriate temperature and turbidity as a measure of cell density was determined via absorbance measurement at 612 nm using a microplate reader. Measurements were taken at 24, 48 and 72 hours for each plate. The raw data was exported into an Excel spreadsheet and the MIC values were determined and expressed as wt %. The absorbance of each inoculated CHDM well was retrieved by first subtracting out the average reading for each uninoculated well, then by comparison to a positive threshold to determine positive or negative status for growth. The positive threshold was calculated by multiplication of the average absorbance for the inoculated media-only wells by 0.05. The MIC was determined as the lowest test concentration resulting in all three replicate wells displaying values below the positive threshold.

P. aeruginosa = assay: as above
Experimental: as §1, §2
(§6) A small loopful of inoculum was transferred from a freshly streaked agar plate of each strain to 5 ml of sterile media in a 17×100 mm culture tube. The bacteria were incubated for 20-28 hours and C. albicans for 44-52 hours.
as §3, §4, §5

E. coli = assay: as above
Experimental: as §1, §2, §6, §3, §4, §5

C. albicans = assay: as above
Experimental: as §1, §2, §6, §3, §4, §5

S. aureus = assay: as above
Experimental: as §1, §2, §6, §3, §4, §5

[1] = tested on: Staphylococcus aureus ATCC 25923; assay: MIC determination and synergy testing (Kull synergy index), microplate; details: MP: MIC alone (QB) or conc. in combination with CHDM (b), plate 166D
Experimental: (§7) The test cultures are listed in Table 7 along with the incubation temperatures used for growth and minimum inhibitory concentration (MIC) testing. […] C. albicans was cultured in Sabouraud dextrose broth (SDB) for approximately 44-52 hours for preparation of inoculum. A. niger was cultured on Sabouraud dextrose agar (SDA) for 3-4 days until there was confluent growth and visible spore formation. Spores were harvested from the SDA plates by flooding the surface of the plate with 5-10 mL of phosphate-buffered saline (PBS) and gently spreading the liquid across the surface of the plate with a sterile T-shaped plastic spreader (Copan Diagnostics) until there was a well-mixed suspension of spores. The resulting spore suspension was collected using a serological pipette and stored at 2-8° C. until use.
(§8) Inoculum concentration was determined by dilution plating of the cultures or spore suspension. A serial dilution in PBS was made to 10^−8 for the bacterial cultures or 10^−5 for the fungal cultures. Fifty or 100 μL of the final dilution was spread on two Trypticase-soy agar (TSA) plates for bacteria or two SDA plates for fungi. After 24 to 48 hours plates were counted and the concentrations used in each experiment were calculated.
(§9) The antimicrobial agents tested for synergy along with the respective diluents and working stock solution concentrations are shown below. For determination of MIC ranges, individual antimicrobial agent stock solutions were added to sterile medium to yield the highest level test concentrations, and then serially diluted in the medium to prepare the range of test concentrations. For synergy testing individual test concentrations were prepared in sterile medium, and then blended to form the desired combinations.
(§10) MICs were determined using a high-throughput microplate method. Individual antimicrobial agents were added to TSB (pH 7.3) for bacterial testing or SDB (pH 5.6) for fungal testing at the highest concentration to be tested. A serial dilution series was prepared at a dilution ratio of 1:1.3333 such that a one log range was covered in nine dilutions. Two-hundred microliters of the diluted antimicrobial agents were dispensed into four wells each of a sterile, 96-well, flat-bottom microplate (Nalge Nunc International). Four additional wells of the highest concentration were dispensed to serve as uninoculated high-level controls. Eight additional wells containing only broth medium were also prepared, four to serve as negative controls and four as positive controls. Three wells of each antimicrobial agent dilution were inoculated with one of the test strains in Table 7. The final well of each antimicrobial agent dilution was left uninoculated to serve as a control (and means of compensating) for any absorbance/turbidity due to the test compounds.
(§11) Microplates were inoculated using the cultures or spore suspensions prepared as described above. The S. aureus cultures were used undiluted, while the E. coli and P. aeruginosa cultures were used either undiluted or after a 1:2 dilution in sterile TSB. The C. albicans cultures were used either undiluted or following a 2-fold concentration by centrifugation. One of two means of inoculation was used to deliver a final concentration of approximately 10^5 colony-forming units (CFU)/mL of C. albicans, 10^5 spores/mL of A. niger, or 10^6 CFU/mL of bacteria. The primary method used a stainless steel pin replicator (Nalge Nunc International) mounted on a hand-operated bench-top press (Schmidt Technology Corporation) fitted with a custom-built microplate holder to dispense one microliter of each inoculum from a “master” plate containing 50-100 μL of culture into the wells of the test plate. The pin replicator was sterilized before and between inoculations by immersing in ethanol and flaming. The alternative method of inoculation was by directly pipetting 20 μL of a 1:20 dilution of each culture or spore suspension into the appropriate wells of the test plates.

[2] = tested on: Pseudomonas aeruginosa ATCC 27853; assay: as above; details: MP: MIC alone (QB) or conc. in combination with CHDM (b); plate 146E; day 1
Experimental: as §7, §8, §9, §10, §11

Aspergillus niger = assay: Test for adequate preservation in skin cream formulation (microorganism counts); details: skin cream emulsion pH 6.75; concentration in label
Experimental: (§12) A test for adequate preservation was carried out in accordance with the European Pharmacopea (6.0) and United States Pharmacopea (5.1). The testing consisted of the inoculation of a skin cream formulation serving as an emulsion substrate. The skin cream formulation having a pH of 6.75 was as follows: […]
(§13) This skin cream was the emulsion substrate, which formed the base for all further experimentation.
(§14) For Examples 3.1 through 3.10, 390.0 g cream were weighed into a 600-ml beaker. The cream was stirred at room temperature while adding the ingredients specified in Table 51. Each sample was stirred for 2 hours, then placed in the refrigerator until inoculated.
(§15) For Examples 3.11 and 3.12, 179.4 g cream were weighed into a 400-ml beaker. The cream was stirred at room temperature while adding the specified ingredients.
(§16) The samples of Examples 3.1 through 3.10 were challenged with specific organisms (see Table 51) to produce a contamination of between 1.0×10^5 cfu/g and 1.0×10^6 cfu/g. The actual inoculation counts resulting from these challenges were immediately determined by diluting in sterile buffered water and (spread plate method) plating for enumeration.
(§17) Challenge organisms were prepared in Mueller-Hinton broth, allowed to grow for 72 hours at 35° C.+/−2° C., centrifuged at 2500 rpm for 5 minutes, and the supernatant broth was removed. The microbial pellet was then re-diluted with sterile buffered water to a turbidity that matched previous 1.0×10^8 cfu/g concentrations of that organism's specific growth curve.
(§18) The test emulsions were maintained within a specific temperature range optimal for the organisms; 35° C.+/2° C. for the bacteria and 22° C.+/−2° C. for the fungi, for the first three days. They were kept at ambient room temperature for the subsequent time periods.
(§19) Subculture samples of approximately 1 gram were taken for counts at 7, 14, and 30 days and incubated under optimal conditions and nutrition for no less than 5 days. Subcultures were diluted 1:2, 1:10, 1:100, . . . , 1:10,000 and plated using the spread plate method onto Plate Count Agar and onto SAB Dextrose Agar for the Candida and Aspergillus species; and incubated as follows: 35° C.+/−2° C. for the Plate Count Agar and 22° C.+/−2° C. for the SAB Dextrose plates of Candida albicans and Aspergillus niger. Negative results were not reported before 7 days incubation, and counts were performed after no less than 5 days incubation. Because of the high viscosity of the test emulsion, at least a 1:2 dilution was required to perform the spread plate subcultures. 0-30 counts represent a 1 to 2 dilution, numbers […] a 1:10 dilution; and the rest represent dilutions of 1:100, 1:1000, or 1:10,000. […]

Candida albicans = assay: as above; details: skin cream emulsion pH 6.75; concentration in label
Experimental: as §12, §13, §14, §15, §16, §17, §18, §19

[3] = tested on: Aspergillus niger ATCC 16404; assay: MIC determination and synergy testing (Kull synergy index), microplate; details: A. niger; plate 154C; day 3; MP and CHDM
Experimental: as §7, §8
The A. niger spore suspensions were concentrated to a level of 1-2×10^8 spores/mL by centrifugation and resuspension in a portion of the resulting supernatant.
as §9, §10
Microplates were inoculated using the cultures or spore suspensions prepared as described above. The S. aureus cultures were used undiluted, while the E. coli and P. aeruginosa cultures were used either undiluted or after a 1:2 dilution in sterile TSB. The C. albicans cultures were used either undiluted or following a 2-fold concentration by centrifugation. One of two means of inoculation was used to deliver a final concentration of approximately 10^5 colony-forming units (CFU)/mL of C. albicans, 10^5 spores/mL of A. niger, or 10^6 CFU/mL of bacteria. The primary method used a stainless steel pin replicator (Nalge Nunc International) mounted on a hand-operated bench-top press (Schmidt Technology Corporation) fitted with a custom-built microplate holder to dispense one microliter of each inoculum from a “master” plate containing 50-100 μL of culture into the wells of the test plate. The pin replicator was sterilized before and between inoculations by immersing in ethanol and flaming. […]

OCC1CCC(CO)CC1 (stereo not shown) [1,4 CHDM] was tested, and the “MIC Day 1” value (A. niger; 24 H) was over 5.0 wt %, the “MIC Day 2” value (A. niger; 48 H) was 3.75 wt % and the “MIC Day 3” value (A. niger; 72 H) was 3.75 wt %. The “MIC Day 1” value (P. aeruginosa; 24 H) was 1.58 wt %, the “MIC Day 2” value (P. aeruginosa; 48 H) was 1.58 wt % and the “MIC Day 3” value (P. aeruginosa; 72 H) was 2.11 wt %. For the same compound, the “MIC Day 1” value (E. coli; 24 H) was 1.58 wt %, the “MIC Day 2” value (E. coli; 48 H) was 1.58 wt % and the “MIC Day 3” value (E. coli; 72 H) was 1.58 wt %. For the same compound, the “MIC Day 1” value (C. albicans; 24 H) was 3.75 wt %, the “MIC Day 2” value (C. albicans; 48 H) was 4.99 wt % and the “MIC Day 3” value (C. albicans; 72 H) was over 5.0 wt %. For the same compound, the “MIC Day 1” value (S. aureus; 24 H) was 3.75 wt %, the “MIC Day 2” value (S. aureus; 48 H) was 3.75 wt % and the “MIC Day 3” value (S. aureus; 72 H) was 3.75 wt %.
In the case of COC(=O)c1ccc(O)cc1 [MP, Methylparaben, reference compound], the QB/b ([1]; day 1) is reported as 0.23, the QB/b ([1]; day 2) is reported as 0.23 and the QB/b [2] is reported as 0.14. For the same compound, the “Antimicrobial activity against Aspergillus niger in skin cream (in words)” value (Aspergillus niger) was “not at this low concentration”, the “Antimicrobial activity against Candida albicans in skin cream (in words)” value (Candida albicans) was “not at this low concentration” and the “QB/b: concentration of MP (MIC alone, or in the combination at an inhibitory concentration)” value [3] was 0.050 weight percent. For the same compound, the “SI (synergy index)” value [3] was 1.00.
